# PubChem BioAssay (NCI)
# Several values for one entry are separate records, joined by “and”; a condition that tells them apart may be missing. Equal values may be shown once.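 Results reflect a 48-hour exposure of cells in 96-well plates to compound at five concentrations. Here, GI50 denotes the concentration required for 50% inhibition of growth. TGI: concentration producing complete growth inhibition.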
# Columns and labels:
# Assay in all cases: inhibition of tumour cell growth, NCI panel, 48 h
# [1] = system: CAKI-1 renal
# [2] = system: SF-268 CNS
# [3] = system: TK-10 renal
# [4] = system: MALME-3M melanoma
# [5] = system: HT29 colon
# [6] = system: SF-539 CNS
# [7] = system: HOP-62 NSCLC
# [8] = system: OVCAR-5 ovarian
# [9] = system: OVCAR-8 ovarian
# [10] = system: HOP-92 NSCLC
Compound,GI50 [1],TGI [1],GI50 [2],TGI [2],GI50 [3],TGI [3],GI50 [4],TGI [4],GI50 [5],TGI [5],GI50 [6],TGI [6],GI50 [7],TGI [7],GI50 [8],TGI [8],GI50 [9],TGI [9],GI50 [10],TGI [10]
O=C(/C=C/N1CCN(c2cccc(C(F)(F)F)c2)CC1)c1ccc(Cl)cc1Cl,22.7 µM,41.3 µM,28.6 µM,88.8 µM,30.1 µM,87.3 µM,17.4 µM,36.2 µM,38.6 µM,> 100 µM,24.8 µM,51.3 µM,19 µM,35.4 µM,30.6 µM,> 100 µM,28.5 µM,83.4 µM,20.6 µM,50.7 µM
COc1cccc(-c2nn(-c3ccccc3)cc2-c2ccnc(NCCNC(=O)Nc3ccc(Cl)c(Cl)c3)c2)c1,2.79 µM,11.1 µM,2.43 µM,10.3 µM,4.78 µM,18.9 µM,1.89 µM,4.66 µM,1.91 µM,5.39 µM,1.93 µM,4.17 µM,3.39 µM,12.7 µM,2.25 µM,10.1 µM,2.98 µM,11.2 µM,1.37 µM,5.48 µM
CCOP(=O)(OCC)/C(C#N)=C\c1cccc2ccccc12,–,> 100 µM,–,64.9 µM,–,> 100 µM,–,> 100 µM,–,> 100 µM,–,> 100 µM,–,> 100 µM,–,> 100 µM,–,> 100 µM,–,93.6 µM
COc1ccc2nc3ccc(OC)cc3c(SCCCN)c2c1,9.79 µM,26 µM,4.67 µM,14.5 µM,2.03 µM,10.5 µM,1.6 µM,10.5 µM,1.91 µM,4.07 µM,13.7 µM,26.8 µM,20.3 µM,45.8 µM,13.5 µM,28.3 µM,5.13 µM,12.9 µM,3.59 µM,13.1 µM
COc1ccccc1Cn1cc2c(c1)-c1oncc1CC2,0.545 µM,> 55.8 µM,1.21 µM,> 75.1 µM,2.67 µM,> 78 µM,1.41 µM,> 100 µM,0.351 µM,11.7 µM,0.453 µM,5.13 µM,1.02 µM,> 100 µM,0.756 µM,> 74.1 µM,1.92 µM,> 50.8 µM,2.75 µM,57.7 µM
O=C(N[C@@H]1CCCc2ccccc21)[C@H](CCC(=O)N1CCN(C2CCCCC2)CC1)N1C(=O)[C@@H](N2C(=O)OC[C@@H]2c2ccccc2)[C@H]1/C=C/c1ccccc1,1.92 µM,6.8 µM,1.3 µM,3.04 µM,2.02 µM,6.01 µM,1.63 µM,3.15 µM,1.99 µM,5.21 µM,1.74 µM,3.42 µM,3.87 µM,17.4 µM,4.01 µM,47.5 µM,4.58 µM,18.9 µM,1.58 µM,5.18 µM
COc1cc[nH]c1/C=C1\C(=O)Nc2ccc(F)c(C#CC3(O)CCOCC3)c21,0.011 µM,–,0.714 µM,2.03 µM,0.507 µM,2.92 µM,1.22 µM,5.81 µM,0.501 µM,2.81 µM,0.489 µM,1.03 µM,0.878 µM,> 10.4 µM,0.714 µM,> 7.16 µM,0.867 µM,> 25 µM,0.678 µM,2.02 µM
Nc1ncnc2occ(-c3ccc(NC(=O)Nc4cc(C(F)(F)F)cc(C(F)(F)F)c4)cc3)c12,2.6 µM,10 µM,2.92 µM,6.66 µM,1.84 µM,5.96 µM,4.09 µM,9.27 µM,1.83 µM,5.29 µM,1.06 µM,5.44 µM,3.66 µM,6.99 µM,4.39 µM,8.99 µM,2.89 µM,7.11 µM,0.977 µM,4.42 µM
CC1=NN(C(=O)CC(=O)Nc2cccc(Cl)c2)C(=O)C1N=Nc1ccc(S(N)(=O)=O)cc1 (stereo unspecified),–,> 100 µM,–,> 100 µM,–,> 100 µM,–,> 100 µM,–,> 100 µM,–,> 100 µM,–,> 100 µM,–,> 100 µM,–,> 100 µM,–,> 100 µM
CC1(C)N=C(N)N=C(N)N1c1ccc(OCC(=O)Nc2cccc(S(=O)(=O)F)c2)c(Cl)c1,–,> 100 µM,–,> 41.3 µM,–,> 44.4 µM,–,> 19.9 µM,–,> 100 µM,–,> 100 µM,–,> 79.7 µM,–,> 100 µM,–,> 100 µM,–,> 100 µM
Cn1c(=O)c2c3oc(=O)cc(O)c3c(=O)n3c4ccccc4n(c1=O)c23,–,> 100 µM,–,> 100 µM,–,> 100 µM,–,> 100 µM,–,> 100 µM,–,> 100 µM,–,> 100 µM,–,> 100 µM,–,> 100 µM,–,95.9 µM
CC1=CC2=C(C)C3(CC3)[C@@](C)(O)C(=O)C2=C1,–,0.744 µM,–,0.456 µM,–,0.89 µM,–,0.424 µM,–,0.803 µM,–,0.47 µM,–,0.356 µM,–,0.454 µM,–,0.706 µM,–,0.692 µM
Cn1c(=O)n(-c2ccc(C(C)(C)C#N)cc2)c2c3cc(-c4cnc5ccccc5c4)ccc3ncc21,–,0.0401 µM,0.0126 µM and 0.00657 µM and < 0.0109 µM,> 100 µM,0.0102 µM and 0.00652 µM and 0.0126 µM,–,0.00576 µM and < 0.01 µM,0.04 µM and 0.0568 µM,0.0101 µM and 0.00603 µM and < 0.01 µM,–,< 0.01 µM and 0.00503 µM,0.0761 µM and 0.0316 µM and 0.118 µM,< 0.01 µM and 0.00605 µM,11.9 µM and > 2.72 µM,0.0213 µM and 0.00759 µM and 0.0159 µM,> 100 µM,0.0101 µM and 0.00582 µM and < 0.01 µM,–,< 0.01 µM and 0.00431 µM,0.0622 µM and 0.122 µM and 0.0651 µM
CC(C)(C)n1cc(-c2ccnc(NCCNS(=O)(=O)c3ccc(Br)cc3)c2)c(-c2cccc(O)c2)n1,2.17 µM,6.07 µM,2.04 µM,5.96 µM,2.24 µM,5.93 µM,1.67 µM,3.34 µM,1.52 µM,3.75 µM,1.54 µM,3.11 µM,1.5 µM,3 µM,1.78 µM,3.53 µM,2.27 µM,7.71 µM,1.51 µM,3.86 µM
CC1Cc2c(N(C)C)ncnc2N(C)c2ccc(Cl)cc21 (stereo unspecified),3.12 µM,> 100 µM,8.09 µM,> 100 µM,14.8 µM,> 100 µM,3.73 µM,60 µM,3.22 µM,37 µM,2.93 µM,12.2 µM,4.81 µM,73.4 µM,–,–,9.17 µM,> 100 µM,11 µM,69.6 µM
O=C(CCCCCCCCCCc1ccccc1)c1c(O)cccc1O,–,74.8 µM,–,57.8 µM,–,> 100 µM,–,34.3 µM,–,88 µM,–,34.8 µM,–,42.2 µM,–,45.2 µM,–,38.1 µM,–,41.8 µM
CC[C@]12C=CCN3CC[C@]4(C(=C(C(=O)OC)C1)Nc1cc(O)ccc14)[C@@H]32,14.1 µM,37.1 µM,20.7 µM,53.2 µM,30.8 µM,99.7 µM,11.8 µM,26.3 µM,19.9 µM,63.1 µM,15.1 µM,30.1 µM,17.2 µM,38.9 µM,19.8 µM,57 µM,24.5 µM,68.8 µM,11.6 µM,26.1 µM
CCN(CC)CCC(=O)Nc1ccc(Cn2nnc3c2C(=O)c2nnn(Cc4ccc(NC(=O)CCN(CC)CC)cc4)c2C3=O)cc1,> 71.1 µM,> 100 µM,0.338 µM,1.51 µM,13.2 µM,30.8 µM,0.137 µM,0.294 µM,0.304 µM,0.787 µM,0.295 µM,0.821 µM,1.75 µM,3.42 µM,0.994 µM,3.34 µM,1.83 µM,4.41 µM,0.325 µM,0.913 µM
Cc1ccc(C2=Nc3c(N)ncnc3NC(c3cccc(Nc4ccnc5cc(C(F)(F)F)ccc45)c3)C2)cc1 (stereo unspecified),3.15 µM,15.2 µM,4.47 µM,47.1 µM,6.89 µM,80.7 µM,3 µM,23.1 µM,2.45 µM,7.29 µM,2.68 µM,9.26 µM,5.38 µM,52.1 µM,4.96 µM,> 100 µM,5.89 µM,76.7 µM,2.54 µM,9.75 µM
O=C1OCC(C(=O)c2cccc(O)c2)C1=O (stereo unspecified),–,> 100 µM,–,> 100 µM,–,> 100 µM,–,> 100 µM,–,> 100 µM,–,> 100 µM,–,> 100 µM,–,> 100 µM,–,> 100 µM,–,> 100 µM
CC(C)OP(=O)(CP(=O)(OC(C)C)OC(C)C)OC(C)C.[CH3][Sn]([Br])([Br])[Br],> 100 µM,> 100 µM,> 100 µM,> 100 µM,> 100 µM,> 100 µM,> 100 µM,> 100 µM,> 100 µM,> 100 µM,> 100 µM,> 100 µM,> 100 µM,> 100 µM,> 100 µM,> 100 µM,> 100 µM,> 100 µM,> 100 µM,> 100 µM
Cc1ccc(NC(=O)CCC(=O)C2CC(=O)CC/C2=N\NC(=O)c2cc3ccccc3cc2O)cc1C (stereo unspecified),–,> 100 µM,–,> 100 µM,–,> 100 µM,–,90.2 µM,–,> 100 µM,–,87.3 µM,–,> 100 µM,–,56.8 µM,–,> 100 µM,–,> 100 µM
COc1ccccc1C(=O)c1cnc(NC2CCN(S(C)(=O)=O)CC2)nc1N,5.84 µM,> 25 µM,7.35 µM,> 25 µM,5.92 µM,> 25 µM,> 16.4 µM,> 25 µM,6.27 µM,> 25 µM,4.97 µM,15.2 µM,7.73 µM,> 25 µM,4.92 µM,> 25 µM,6.97 µM,> 25 µM,6.14 µM,> 22.9 µM
CCOC(=O)c1[nH]c2c(c1C)-c1[nH]c(=O)c(S(=O)(=O)c3ccccc3)cc1SC2,54.1 µM,> 100 µM,34.5 µM,> 100 µM,42.6 µM,> 100 µM,36.4 µM,> 100 µM,40.7 µM,> 100 µM,30.6 µM,> 100 µM,44.3 µM,> 100 µM,> 100 µM,> 100 µM,37.7 µM,> 100 µM,0.504 µM,61.1 µM
CCCC/C(=N\N=C(N)N)c1ccc(F)cc1,3.44 µM,15.1 µM,5.58 µM,20.8 µM,7.83 µM,20.8 µM,4.13 µM,18.5 µM,2.23 µM,–,2.77 µM,8.59 µM,3.81 µM,15.8 µM,5.08 µM,17.8 µM,3.61 µM,15.2 µM,2.13 µM,8.93 µM
CCCCCCCCCCCCCCCC[N+]1(CC)CCCC1,1.75 µM,11.3 µM,0.454 µM,1.68 µM,0.266 µM,1.21 µM,0.582 µM,1.98 µM,–,–,0.683 µM,1.98 µM,1.03 µM,2.52 µM,0.439 µM,1.81 µM,–,–,0.227 µM,1.33 µM
CC1=C(C#N)C(N)=C2C(C)=C(C#N)C(N)=C12,–,> 100 µM,–,> 100 µM,–,> 100 µM,–,> 100 µM,–,> 100 µM,–,> 100 µM,–,> 100 µM,–,> 100 µM,–,> 100 µM,–,> 100 µM
COC(=O)c1cc(Nc2ccc(O)c3c2C(=O)c2c([N+](=O)[O-])ccc(O)c2C3=O)cc(C(=O)OC)c1,77.1 µM,> 100 µM,7.97 µM,> 100 µM,–,–,2.75 µM,6.39 µM,8.21 µM,> 100 µM,60 µM,> 100 µM,4.04 µM,> 100 µM,26 µM,> 100 µM,6.57 µM,> 100 µM,22 µM,> 100 µM
